According to patent US20090258069A1, “Delivery of LFA-1 antagonists to the gastrointestinal system” (priority 2008, published 2009):
Like-named read-outs stand apart in the source and are kept apart here.

What was measured:
Solubility studies = assay type: physicochemical
[1] = Skin transport studies on microtomed human skin; assay type: in vitro ADME; conditions: 1% (w/w) prototypes; [^14C]-Compound 12
From the text: Prototypes have been developed and tested on microtomed human skin from elective surgery at 1% (w/w). The forms include gels, ointment, or lotion. […] Skin transport studies performed with LC/MS/MS analysis indicate high Compound 12 levels in epidermis and dermis and low levels in the receiver.

dogs (beagles) = test: Cardiovascular effects in conscious telemetry-instrumented dogs, IV bolus; assay type: in vivo, dog; conditions: IV bolus injection
[2] = Pilot ocular tolerance of topically administered Compound 12 in dogs-PK; assay type: in vivo, dog; conditions: dog, vitreous fluid, topical; TID for three days with 3.5 mg/eye (10%); ranged from BLOQ; read-out: levels in the vitreous fluid
dogs = test: as above; assay type: in vivo, dog; conditions: up to 10% strength at 3 doses/day
[3] = Single dose ocular and IV ADME with [^14C]-Compound 12 in rats, quantitative whole body autoradiography; assay type: in vivo, rat; conditions: for Compound 12 Concentration, Aqueous humor / Compound 12 Concentration, Conjunctiva (bulbar) / Compound 12 Concentration, Conjunctiva (palpebral) / Compound 12 Concentration, Cornea / Compound 12 Concentration, Iris-ciliary body / Compound 12 Concentration, Lens / Compound 12 Concentration, Optic Nerve / Compound 12 Concentration, Retina and Choroid (with RPE) / Compound 12 Concentration, Sclera / Compound 12 Concentration, Vitreous Humor: ocular dosing in rats; for excretion in feces, of the administered radioactivity: 0 to 168 hours postdose
Method: Quantitative whole body […] assessments were performed.
Little or no drug is observed in systemic distribution.

[4] = tested on: human mononuclear cells (PBMC) stimulated with staphylococcal enterotoxin B (SEB); test: cells; assay type: cell-based
[5] = Pilot mini-pig dermal study; assay type: in vivo; conditions: minipig, plasma, topical, 10 mg/cm^2 of 1% formulation over approximately 50 cm^2; all groups; below LLOQ; read-out: Plasma levels
From the text: (§1) One pig/dose formulation was used. In-life PK analysis was completed.

mini-pigs = test: Pilot mini-pig dermal study; assay type: in vivo; conditions: DMSO, gel, ointment, lotion at 1%; TID 7 days, 10 mg/cm^2 on about 50 cm^2
From the text: as §1

rabbits = test: 13-week ocular toxicity study in rabbits with 4-week recovery (with TK); conditions: (3%)
CD-1 (ICR) BR mice = test: In vivo mouse bone marrow micronucleus assay; conditions: repeated IV administrations
[6] = tested on: Chinese hamster ovary (CHO) cells; test: In vitro chromosomal aberration assay in CHO cells; assay type: cell-based; conditions: with and without metabolic activation, except single toxic dose 3500 μg/mL, 3-hour
From the text: The biological relevance of this response is equivocal due to cytotoxicity.

healthy adults = test: Phase 1 clinical trial of Compound 12 Ophthalmic Solution, safety and tolerability; assay type: in vivo, human
From the text: The objectives of the trial were to measure safety and tolerability, and pharmacokinetics in tear and plasma. The dosing schedule (OU; Oculus Uterque (each eye or both eyes)) was divided into 3 periods, each separated by a 72-hour wash out interval: once/day×1 day (drug one eye; placebo fellow eye), twice/day×10 days, and thrice/day×10 days, 14-day observation. Slit lamp examination of the eye, BCVA (Best Corrected Visual Acuity), STTs (Schirmer Tear Test), TBUT (Tear Break-Up Time), IOP (Intraocular pressure) were assessed at screening and the beginning and end of each period. For each cohort, masked safety data was reviewed by a Safety Committee prior to allowing dose escalation of the next cohort. A total of 2856 doses (102 drops/subject) were administered over 1148 total subject study days (41 study days/subject) in 56 eyes. All subjects in all cohorts completed the study, and no study drug doses were missed.

[7] = Plasma PK in rats after a single IV bolus dose; assay type: in vivo, rat; conditions: for AUC: read-out: AUC0-n
rats = test: CNS effects in rats, single bolus IV injection; assay type: in vivo, rat
From the text: No effect on any other parameters was observed.

[8] = 0.5 hour postdose, ocular 1 mg/eye
[9] = 0.5 hour postdose, ocular 1 mg/eye, male Sprague Dawley, above upper limit of quantification
[10] = 2 hours postdose, ocular 1 mg/eye
[11] = 8 hours postdose, ocular 1 mg/eye
[12] = 24 hours postdose, ocular 1 mg/eye
[13] = 30.0 mg/kg single IV bolus, from rat safety pharmacology study
[14] = rat, 10.0 mg/kg single IV bolus

## CS(=O)(=O)c1cccc(C[C@H](NC(=O)c2c(Cl)cc3c(c2Cl)CCN(C(=O)c2ccc4ccoc4c2)C3)C(=O)O)c1 [Compound 12]
Solubility studies; ethanol/glycol/transcutol solution
  solubility: 10 % (w/w)
Solubility studies; water/glycol/transcutol solution
  solubility: 2 % (w/w)
[1]
  Compound 12 in dermis: greater than 10 micromolar
  dose penetration: 2-4%
Dogs (beagles)
  effects on electrocardiography or hemodynamic parameters: No effects
[2]
  concentration at 3 days: ≤ 18 ng/mL
dogs
  ocular safety and tolerability: safe and well tolerated
[3]; 0.5 hour after administration
  Compound 12 Concentration, Aqueous humor: 1770 ng Equivalents [^14C]-Compound 12/g tissue
  Compound 12 Concentration, Conjunctiva (bulbar): 31500 ng Equivalents [^14C]-Compound 12/g tissue
  Compound 12 Concentration, Conjunctiva (palpebral): 26300 ng Equivalents [^14C]-Compound 12/g tissue
  Compound 12 Concentration, Cornea: 17150 ng Equivalents [^14C]-Compound 12/g tissue
  Compound 12 Concentration, Iris-ciliary body: 17550 ng Equivalents [^14C]-Compound 12/g tissue
  Compound 12 Concentration, Lens: 38.8 ng Equivalents [^14C]-Compound 12/g tissue
  Compound 12 Concentration, Optic Nerve: 796 ng Equivalents [^14C]-Compound 12/g tissue
  Compound 12 Concentration, Retina and Choroid (with RPE): 510 ng Equivalents [^14C]-Compound 12/g tissue
  Compound 12 Concentration, Sclera: 2750 ng Equivalents [^14C]-Compound 12/g tissue
  Compound 12 Concentration, Vitreous Humor: 1330 ng Equivalents [^14C]-Compound 12/g tissue
[3]; [8]
  radioactivity concentration, eye: 18100 ng equivalents [^14C]-Compound 12/g
  radioactivity concentration, kidney: 151 ng equivalents [^14C]-Compound 12/g
  radioactivity concentration, liver: 272 ng equivalents [^14C]-Compound 12/g
  radioactivity concentration, uveal tract: 9330 ng equivalents [^14C]-Compound 12/g
[3]; [9]
  radioactivity concentration, esophageal contents: 399000 ng equivalents [^14C]-Compound 12/g
  radioactivity concentration, nasal turbinates: 352000 ng equivalents [^14C]-Compound 12/g
  radioactivity concentration, small intestinal contents: 349000 ng equivalents [^14C]-Compound 12/g
[3]; [10]
  decline of radioactivity concentration, esophageal contents: ~100 fold
  decline of radioactivity concentration, esophagus: approximately 50 fold
[3]; 4.0 hours after administration
  Compound 12 Concentration, Aqueous humor: 116 ng Equivalents [^14C]-Compound 12/g tissue
  Compound 12 Concentration, Conjunctiva (bulbar): 4480 ng Equivalents [^14C]-Compound 12/g tissue
  Compound 12 Concentration, Conjunctiva (palpebral): 21830 ng Equivalents [^14C]-Compound 12/g tissue
  Compound 12 Concentration, Cornea: 1346 ng Equivalents [^14C]-Compound 12/g tissue
  Compound 12 Concentration, Iris-ciliary body: 500 ng Equivalents [^14C]-Compound 12/g tissue
  Compound 12 Concentration, Lens: 9.69 ng Equivalents [^14C]-Compound 12/g tissue
  Compound 12 Concentration, Optic Nerve: 0 ng Equivalents [^14C]-Compound 12/g tissue
  Compound 12 Concentration, Retina and Choroid (with RPE): 46.7 ng Equivalents [^14C]-Compound 12/g tissue
  Compound 12 Concentration, Sclera: 387 ng Equivalents [^14C]-Compound 12/g tissue
  Compound 12 Concentration, Vitreous Humor: 183 ng Equivalents [^14C]-Compound 12/g tissue
[3]; [11]
  radioactivity concentration, cecum contents: 57600 ng equivalents [^14C]-Compound 12/g
  radioactivity concentration, large intestinal contents: 133000 ng equivalents [^14C]-Compound 12/g
[3]; 12 hours postdose, ocular 1 mg/eye
  radioactivity concentration, uveal tract: 610 ng equivalents [^14C]-Compound 12/g
[3]; [12]
  radioactivity concentration, cecum contents: 5870 ng equivalents [^14C]-Compound 12/g
  radioactivity concentration, large intestinal contents: 18000 ng equivalents [^14C]-Compound 12/g
[3]; IV administration 10 mg/kg
  excretion in feces, of the administered radioactivity: ~95%
[3]; ocular administration 1 mg/eye
  excretion in feces, of the administered radioactivity: approximately 60%
[3]; ocular or IV
  Urinary excretion, of the administered radioactivity: up to 2%
[3]; pigmented vs albino rats
  binding to melanin: did not preferentially bind to melanin
[3]; rat, for 16 hrs
  levels in conjunctiva/cornea: > 100 nM
[3]; up to 168 hrs, topical ocular or IV dose
  metabolites in pooled plasma, urine and fecal homogenates: no metabolites were isolated
[4]; read-out: EC50 Cytokine Release GM-CSF
  EC50: 0.545 µM
[4]; read-out: EC50 Cytokine Release IFNγ
  EC50: 0.0016 µM
[4]; read-out: EC50 Cytokine Release IL-1α
  EC50: 0.24 µM
[4]; read-out: EC50 Cytokine Release IL-1β
  EC50: 0.36 µM
[4]; read-out: EC50 Cytokine Release IL-2
  EC50: 0.0018 µM
[4]; read-out: EC50 Cytokine Release IL-3
  EC50: 52.2 µM
[4]; read-out: EC50 Cytokine Release IL-4
  EC50: 0.143 µM
[4]; read-out: EC50 Cytokine Release IL-5
  EC50: 0.11 µM
[4]; read-out: EC50 Cytokine Release IL-6
  EC50: 43.5 µM
[4]; read-out: EC50 Cytokine Release IL-10
  EC50: 0.147 µM
[4]; read-out: EC50 Cytokine Release IL-12p40
  EC50: > 1000 µM
[4]; read-out: EC50 Cytokine Release IL-13
  EC50: 0.36 µM
[4]; read-out: EC50 Cytokine Release IP-10
  EC50: 1.16 µM
[4]; read-out: EC50 Cytokine Release MCP-1
  EC50: 0.005 µM
[4]; read-out: EC50 Cytokine Release MIP-1α
  EC50: 0.02 µM
[4]; read-out: EC50 Cytokine Release TNF-α
  EC50: 0.076 µM
[4]; read-out: IC50 values in in vitro cell assays (cell attachment and SEB IL-2 release)
  IC50: 0.002 µM
[5]
  concentration at 7 days: < 0.5 ng/mL
mini-pigs
  toxicity, dermal formulations: No toxicity
rabbits
  NOAEL: 1.05 mg/eye/3× per day
CD-1 (ICR) BR mice
  mouse bone marrow micronucleus assay: negative
[6]
  structural chromosomal aberrations in CHO cells: negative
Healthy adults; 0.1%, 0.3%, 1% and 5% dose strengths, any dose regimen
  deaths, discontinuations, serious or severe AEs considered related to drug: No deaths, discontinuations, serious or severe ocular or non-ocular AEs
Healthy adults; dose strengths up to 5% TID
  overall safety and tolerability, topical ocular instillation: safe and well-tolerated
Healthy adults; human, in vivo
  localized ocular irritation or infection: no evidence of localized ocular irritation or infection
Healthy adults; throughout the trial
  Blood pressure, heart rate, respiratory rate, temperature, body weight, and EKG results: within normal ranges
  Total lymphocyte count, CD3, CD4, and CD8 cell counts: within normal ranges with no evidence of lymphocyte or neutrophil suppression
[7]; [13]
  Cmax: 5120 ng/mL
  AUC: 2350 ng·h/mL
[7]; [14]
  Cmax: 1060 ng/mL
  MRT: 0.92 h
  clearance: 173 mL/min/kg
  half-life: 3.76 h
  AUC: 728 ng·h/mL
[7]; rat, 10.0 mg/kg single IV bolus, read-out: Vss
  Vd: 9.56 L/kg
rats; 10.0 mg/kg IV, 1 minute to 6 hours postdose in 2/6 animals at each time point
  CNS observation: Transient miosis
rats; single bolus IV
  effect on any other CNS parameters: No effect
